*1 amine or outer side, *2 acyl side, *3 side chain or, on linkers, in order; H or OH if unused. Where a SMILES comes first, the peptide text is derived from it. Bridges are numbered along the chain shown (N, C = ends). [ ]: non-standard residue; d: D form. The star is where a group is joined. hPhe(3,5-F2-4-CF3) = N[C@@H](CCc1cc(F)c(C(F)(F)F)c(F)c1)C(=O)O; NPrPhe(4-CF3) = CCCN[C@@H](Cc1ccc(C(F)(F)F)cc1)C(=O)O; X29 = CN([C@@H](CCCC=[*:3])C(=O)[*:2])[*:1]; dαMeAlg = C[C@](CC=[*:3])(N[*:1])C(=O)[*:2]; NMeGly(cPent) = CN[C@H](C(=O)O)C1CCCC1; Hyp = O=C(O)[C@@H]1C[C@@H](O)CN1; NMeD = CN[C@@H](CC(=O)O)C(=O)O; Morpholide = C1CN(*)CCO1; Sar = CNCC(=O)O
What was measured:
[1] = biological target: GDP-bound HRAS wild-type protein (Homo sapiens, UniProt P01112); assay: Binding to HRAS by surface plasmon resonance (SPR), Single Cycle Kinetics; details: SPR, GDP-bound HRAS wild-type protein vs GDP-bound KRAS wild-type protein
[2] = biological target: GDP-bound KRAS wild-type protein (Homo sapiens, UniProt P01116); assay: Binding to KRAS by surface plasmon resonance (SPR), Single Cycle Kinetics; details: SPR, Single Cycle Kinetics, GDP-bound KRAS wild-type protein; read-out: KRAS KD
[3] = biological target: GDP-bound NRAS wild-type protein (Homo sapiens, UniProt P01111); assay: Binding to NRAS by surface plasmon resonance (SPR), Single Cycle Kinetics; details: SPR, GDP-bound NRAS wild-type protein vs GDP-bound KRAS wild-type protein
Chain of GDP-bound NRAS wild-type protein (P01111 whole entry): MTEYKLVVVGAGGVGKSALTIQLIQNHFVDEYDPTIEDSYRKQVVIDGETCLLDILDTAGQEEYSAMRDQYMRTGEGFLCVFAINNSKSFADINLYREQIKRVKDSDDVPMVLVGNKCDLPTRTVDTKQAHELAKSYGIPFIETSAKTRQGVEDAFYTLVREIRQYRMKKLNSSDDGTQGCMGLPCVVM

Chain of GDP-bound HRAS wild-type protein (P01112 whole entry): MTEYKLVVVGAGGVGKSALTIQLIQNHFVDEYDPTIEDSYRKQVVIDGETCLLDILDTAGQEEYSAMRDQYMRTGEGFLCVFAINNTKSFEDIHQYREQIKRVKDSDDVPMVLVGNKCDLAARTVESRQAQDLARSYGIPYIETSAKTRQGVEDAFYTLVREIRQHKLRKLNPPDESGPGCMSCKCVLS
Chain of GDP-bound KRAS wild-type protein (P01116 whole entry): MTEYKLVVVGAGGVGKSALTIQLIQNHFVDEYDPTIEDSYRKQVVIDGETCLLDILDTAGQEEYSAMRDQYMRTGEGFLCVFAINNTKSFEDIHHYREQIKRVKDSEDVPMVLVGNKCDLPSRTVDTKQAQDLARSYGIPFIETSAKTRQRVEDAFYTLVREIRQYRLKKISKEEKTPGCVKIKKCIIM

SMILES: C=CCCCC[C@H]1C(=O)N[C@@H]([C@@H](C)CC)C(=O)N(C)CC(=O)N(C)[C@H]2CCCCN(C2=O)[C@@H](Cc2ccc(C(F)(F)F)cc2)C(=O)N(C)CC(=O)N[C@@H](CCc2cc(F)c(C(F)(F)F)c(F)c2)C(=O)N2C[C@H](OCC)C[C@H]2C(=O)N[C@](C)(CC=C)C(=O)N(C)[C@@H](C2CCCC2)C(=O)N(C)[C@H](C(=O)N2CCOCC2)CC(=O)N1C [PP0877]
- HRAS/KRAS (ratio of KD value for HRAS to KD value for KRAS) [1]: B (a compound having 3 or more and less than 10 is denoted as B)
- Kd [2]: 0.21 nM
- NRAS/KRAS (ratio of KD value for NRAS to KD value for KRAS) [3]: C (A compound having a KD ratio of 0.1 or more and less than 3 is denoted as C)

SMILES: C=CC[C@H]1C(=O)N[C@@H]([C@@H](C)CC)C(=O)N(C)CC(=O)N(C)[C@H]2CCCCCN(C2=O)[C@@H](Cc2ccc(C(F)(F)F)cc2)C(=O)N(C)CC(=O)N[C@@H](CCc2cc(F)c(C(F)(F)F)c(F)c2)C(=O)N2C[C@H](OCC)C[C@H]2C(=O)N[C@](C)(CC=C)C(=O)N(C)[C@@H](C2CCCC2)C(=O)N(C)[C@H](C(=O)N2CCOCC2)CC(=O)N1C [PP0878]
- HRAS/KRAS (ratio of KD value for HRAS to KD value for KRAS) [1]: B (a compound having 3 or more and less than 10 is denoted as B)
- Kd [2]: 3.2 nM
- NRAS/KRAS (ratio of KD value for NRAS to KD value for KRAS) [3]: B (a compound having 3 or more and less than 10 is denoted as B)

SMILES: CCO[C@@H]1C[C@H]2C(=O)NC3(CCC3)C(=O)N(C)[C@@H](C3CCCC3)C(=O)N(C)[C@H](C(=O)N(C)C)CC(=O)N(C)[C@@H](CC)C(=O)N[C@@H]([C@@H](C)CC)C(=O)N(C)CC(=O)N(C)[C@H]3CCCCN(C3=O)[C@@H](Cc3ccc(C(F)(F)F)cc3)C(=O)N(C)CC(=O)N[C@@H](CCc3ccc(C(F)(F)F)c(C)c3)C(=O)N2C1 [PP0882]
- HRAS/KRAS (ratio of KD value for HRAS to KD value for KRAS) [1]: B (a compound having 3 or more and less than 10 is denoted as B)
- Kd [2]: 0.02 nM
- NRAS/KRAS (ratio of KD value for NRAS to KD value for KRAS) [3]: C (A compound having a KD ratio of 0.1 or more and less than 3 is denoted as C)

SMILES: CCO[C@@H]1C[C@H]2C(=O)NC3(CCC3)C(=O)N(C)[C@@H](C3CCCC3)C(=O)N(C)[C@H](C(=O)N(C)C)CC(=O)N(C)[C@@H](CC)C(=O)N[C@@H]([C@@H](C)CC)C(=O)N(C)CC(=O)N(C)[C@H]3CCCCN(C3=O)[C@@H](Cc3ccc(C(F)(F)F)cc3)C(=O)N(C)CC(=O)N[C@@H](CCc3ccc(C(F)(F)F)c(OC)c3)C(=O)N2C1 [PP0884]
- HRAS/KRAS (ratio of KD value for HRAS to KD value for KRAS) [1]: C (A compound having a KD ratio of 0.1 or more and less than 3 is denoted as C)
- Kd [2]: 0.022 nM
- NRAS/KRAS (ratio of KD value for NRAS to KD value for KRAS) [3]: C (A compound having a KD ratio of 0.1 or more and less than 3 is denoted as C)

SMILES: CCO[C@@H]1C[C@H]2C(=O)NC3(CCC3)C(=O)N(C)[C@@H](C3CCCC3)C(=O)N(C)[C@H](C(=O)N(C)C)CC(=O)N(C)[C@@H](CC)C(=O)N[C@@H]([C@@H](C)CC)C(=O)N(C)CC(=O)N(C)[C@H]3CCCCN(C3=O)[C@@H](Cc3ccc(C(F)(F)F)cc3)C(=O)N(C)CC(=O)N[C@@H](CCc3ccc(C(F)(F)F)cc3F)C(=O)N2C1 [PP0885]
- HRAS/KRAS (ratio of KD value for HRAS to KD value for KRAS) [1]: B (a compound having 3 or more and less than 10 is denoted as B)
- Kd [2]: 0.098 nM
- NRAS/KRAS (ratio of KD value for NRAS to KD value for KRAS) [3]: C (A compound having a KD ratio of 0.1 or more and less than 3 is denoted as C)

SMILES: CCO[C@@H]1C[C@H]2C(=O)NC3(CCC3)C(=O)N(C)[C@@H](C3CCCC3)C(=O)N(C)[C@H](C(=O)N(C)C)CC(=O)N(C)[C@@H](CC)C(=O)N[C@@H]([C@@H](C)CC)C(=O)N(C)CC(=O)N(C)[C@H]3CCCCN(C3=O)[C@@H](Cc3ccc(C(F)(F)F)cc3)C(=O)N(C)CC(=O)N[C@@H](CCc3c(F)c(F)c(C(F)(F)F)c(F)c3F)C(=O)N2C1 [PP0886]
- HRAS/KRAS (ratio of KD value for HRAS to KD value for KRAS) [1]: B (a compound having 3 or more and less than 10 is denoted as B)
- Kd [2]: 0.086 nM
- NRAS/KRAS (ratio of KD value for NRAS to KD value for KRAS) [3]: C (A compound having a KD ratio of 0.1 or more and less than 3 is denoted as C)

SMILES: CCO[C@@H]1C[C@H]2C(=O)NC3(CCC3)C(=O)N(C)[C@@H](C3CCCC3)C(=O)N(C)[C@H](C(=O)N(C)C)CC(=O)N(C)[C@@H](CC)C(=O)N[C@@H]([C@@H](C)CC)C(=O)N(C)CC(=O)N(C)[C@H]3CCCCN(C3=O)[C@@H](Cc3ccc(C(F)(F)F)cc3)C(=O)N(C)CC(=O)N[C@@H](CCc3ccc4sccc4c3)C(=O)N2C1 [PP0887]
- HRAS/KRAS (ratio of KD value for HRAS to KD value for KRAS) [1]: C (A compound having a KD ratio of 0.1 or more and less than 3 is denoted as C)
- Kd [2]: 0.093 nM
- NRAS/KRAS (ratio of KD value for NRAS to KD value for KRAS) [3]: C (A compound having a KD ratio of 0.1 or more and less than 3 is denoted as C)

SMILES: CCO[C@@H]1C[C@H]2C(=O)NC3(CCC3)C(=O)N(C)[C@@H](C3CCCC3)C(=O)N(C)[C@H](C(=O)N(C)C)CC(=O)N(C)[C@@H](CC)C(=O)N[C@@H]([C@@H](C)CC)C(=O)N(C)CC(=O)N(C)[C@H]3CCCCCN(C3=O)[C@@H](Cc3ccc(C(F)(F)F)cc3)C(=O)N(C)CC(=O)N[C@@H](CCc3c(F)c(F)c(C(F)(F)F)c(F)c3F)C(=O)N2C1 [PP0891]
- HRAS/KRAS (ratio of KD value for HRAS to KD value for KRAS) [1]: B (a compound having 3 or more and less than 10 is denoted as B)
- Kd [2]: 0.62 nM
- NRAS/KRAS (ratio of KD value for NRAS to KD value for KRAS) [3]: B (a compound having 3 or more and less than 10 is denoted as B)

SMILES: CCCN1C(=O)CN(C)C(=O)CN(C)C(=O)[C@H]([C@@H](C)CC)NC(=O)[C@@H]2CCCCCOc3ccc(cc3)C[C@H]1C(=O)N(C)CC(=O)N[C@@H](CCc1cc(F)c(C(F)(F)F)c(F)c1)C(=O)N1C[C@H](OCC)C[C@H]1C(=O)NC1(CCCC1)C(=O)N(C)[C@@H](C1CCCC1)C(=O)N(C)[C@H](C(=O)N(C)C)CC(=O)N2C [PP0895]
- HRAS/KRAS (ratio of KD value for HRAS to KD value for KRAS) [1]: C (A compound having a KD ratio of 0.1 or more and less than 3 is denoted as C)
- Kd [2]: 0.0072 nM
- NRAS/KRAS (ratio of KD value for NRAS to KD value for KRAS) [3]: C (A compound having a KD ratio of 0.1 or more and less than 3 is denoted as C)

SMILES: CCCN1C(=O)CN(C)C(=O)CN(C)C(=O)[C@H]([C@@H](C)CC)NC(=O)[C@@H]2CCCCCCOc3ccc(cc3)C[C@H]1C(=O)N(C)CC(=O)N[C@@H](CCc1cc(F)c(C(F)(F)F)c(F)c1)C(=O)N1C[C@H](OCC)C[C@H]1C(=O)NC1(CCCC1)C(=O)N(C)[C@@H](C1CCCC1)C(=O)N(C)[C@H](C(=O)N(C)C)CC(=O)N2C [PP0896]
- HRAS/KRAS (ratio of KD value for HRAS to KD value for KRAS) [1]: C (A compound having a KD ratio of 0.1 or more and less than 3 is denoted as C)
- Kd [2]: 0.018 nM
- NRAS/KRAS (ratio of KD value for NRAS to KD value for KRAS) [3]: C (A compound having a KD ratio of 0.1 or more and less than 3 is denoted as C)

SMILES: CCCN1C(=O)CN(C)C(=O)CN(C)C(=O)[C@H]([C@@H](C)CC)NC(=O)[C@@H]2CCCC=CC[C@@](C)(NC(=O)[C@@H]3C[C@@H](OCC)CN3C(=O)[C@H](CCc3cc(F)c(C(F)(F)F)c(F)c3)NC(=O)CN(C)C(=O)[C@@H]1Cc1ccc(C(F)(F)F)cc1)C(=O)N(C)[C@@H](C1CCCC1)C(=O)N(C)[C@H](C(=O)N1CCOCC1)CC(=O)N2C [PP0901] ([X29]I[Sar][Sar][NPrPhe(4-CF3)][Sar][hPhe(3,5-F2-4-CF3)][Hyp](Et)[dαMeAlg][NMeGly(cPent)][NMeD]-Morpholide; staple 1-9; lactam N-11)
- HRAS/KRAS (ratio of KD value for HRAS to KD value for KRAS) [1]: B (a compound having 3 or more and less than 10 is denoted as B)
- Kd [2]: 3 nM
- NRAS/KRAS (ratio of KD value for NRAS to KD value for KRAS) [3]: B (a compound having 3 or more and less than 10 is denoted as B)

Source: patent US20240158446A1, “CYCLIC COMPOUND HAVING SELECTIVE INHIBITORY ACTION ON KRAS OVER HRAS AND NRAS” (CHUGAI SEIYAKU KABUSHIKI KAISHA, priority 2021, published 2024)
